Assay results as given in article PMC10374545, “A small molecule inhibitor of PTP1B and PTPN2 enhances T cell anti-tumor immunity” (Nature Communications, 2023).
“And” between values parts separate entries of the source, which are not always exact repeats. Equal entries are not always repeated.

Assays:
MC38 colon tumors = assay: MC38 colon tumor growth in C57BL/6 mice; type: in vivo, mouse
Method: Male or female mice were injected subcutaneously with 5 × 10^5 MC38 tumor cells resuspended in 100 μl D-PBS into the flank. Alternatively, female mice were injected orthotopically with 5 × 10^5 AT3 or AT3-OVA or PTPN2-deleted AT3 or AT3-OVA tumor cells resuspended in 20 μl D-PBS into the fourth mammary fat pad. Tumor sizes were measured in two dimensions (mm^2) using electronic callipers two to three times per week as soon as tumors were palpable (20–25 mm^2).

[1] = Serum cytokines (BD Cytokine Bead Array) in AT3-OVA tumor-bearing mice; type: in vivo, mouse
Method: Single-cell suspensions from spleens and lymph nodes were obtained as described previously. For the detection of intracellular cytokines and granzyme B, T cells were fixed and permeabilized with the BD Cytofix/Cytoperm kit according to the manufacturer’s instructions. Briefly, T cells were first surface stained with fluorophore-conjugated antibodies and then fixed followed by permeabilization on ice for 20 min. Fixed and permeabilized cells were stained for IFN-γ, TNF, and granzyme B for 45 min at room temperature. For the detection of intracellular FoxP3 the Foxp3/Transcription Factor Staining Buffer Set (eBioscience) was used according to the manufacturer’s instructions. Briefly, cells were fixed and permeabilized for 1 h on ice followed by intracellular staining at room temperature for 45 min. For the detection of serum cytokines, the BD CBA Mouse Inflammation Kit™ was used according to the manufacturers’ instructions.

PTPN2 [2] = molecular target: T1, PTPN2 (Homo sapiens, UniProt P17706); assay: PTP inhibition assay with DiFMUP substrate (IC50); type: biochemical
T1 construct: PTPN2, residues 1-387; made in house; host or cells: E. coli BL21(DE3)
T1 sequence (P17706 1-387 isoform P17706-2): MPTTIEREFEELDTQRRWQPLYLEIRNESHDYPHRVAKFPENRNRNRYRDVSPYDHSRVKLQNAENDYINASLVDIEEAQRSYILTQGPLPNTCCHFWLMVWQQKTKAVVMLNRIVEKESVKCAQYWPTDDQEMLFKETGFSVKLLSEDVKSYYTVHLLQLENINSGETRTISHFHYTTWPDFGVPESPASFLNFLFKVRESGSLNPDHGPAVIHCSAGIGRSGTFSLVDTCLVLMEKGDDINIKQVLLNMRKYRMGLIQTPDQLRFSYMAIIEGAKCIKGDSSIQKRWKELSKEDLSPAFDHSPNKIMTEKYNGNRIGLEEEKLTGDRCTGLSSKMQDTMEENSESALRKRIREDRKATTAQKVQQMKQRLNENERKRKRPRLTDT
Method: E. coli BL21(DE3) (Novagen) was used as an expression host and the induction of protein expression was carried out in LB media with 1 mM IPTG at 18 °C overnight. Cell pellets were stored at −80 °C for subsequent protein purification.
Protein purification of PTPs for enzymatic assays was conducted at 4 °C. Frozen cell pellets were lysed by sonication in 40 ml cold lysis buffer (50 mM Tris-HCl, pH 8.0, 150 mM NaCl, 5 mM imidazole, and 1 mM PMSF) per litre cell pellet. Cell lysates were clarified by centrifugation using a Beckman JA-18 rotor for 15 min at 5308 x g. The supernatant was incubated with HisPur Ni-NTA resin (Thermo Scientific) for 2 h and then packed onto a column and washed with 50 resin volume of buffer A (50 mM Tris-HCl, pH 8.0, 500 mM NaCl, 5 mM imidazole). The His-tagged proteins were eluted with Buffer B (50 mM Tris-HCl, pH=8.0, 500 mM NaCl, 300 mM imidazole,). Pooled His-protein-containing fractions were concentrated, loaded onto a HiLoad 26/600 Superdex 75 column (GE Healthcare Biosciences) and eluted with storage buffer (50 mM Tris-HCl, pH 8.0, 150 mM NaCl, 1 mM DTT, 10% glycerol). […] The protein was aliquoted and stored at −80 °C.
The PTP kinetic assay was modified from previous reported protocols[73],[74]. […] The fluorescence signal was measured using a CLARIOstar Plus Microplate Spectrophotometer (BMG Labtech) using excitation and emission wavelengths of 340 nm and 450 nm, respectively. […]
To determine the mode of inhibition, the reactions were initiated by the addition of enzyme (final concentration for PTP1B and PTPN2 was 0.05 nM) to the reaction mixtures (0.2 ml) containing various concentrations of DiFMUP with different concentrations of the inhibitor. […] The fluorescence signal was measured using a CLARIOstar Plus Microplate Spectrophotometer (BMG Labtech) using excitation and emission wavelength of 340 nm and 450 nm, respectively. […]

PTPN2 [3] = molecular target: T1, PTPN2; assay: Mode of inhibition and Ki, Lineweaver-Burk kinetic analysis with DiFMUP; type: biochemical
Method: To determine the mode of inhibition, the reactions were initiated by the addition of enzyme (final concentration for PTP1B and PTPN2 was 0.05 nM) to the reaction mixtures (0.2 ml) containing various concentrations of DiFMUP with different concentrations of the inhibitor. The reaction was allowed to proceed for 10 min and then quenched by the addition of 40 µl of a 160 µM solution of bpV(Phen) (Sigma-Aldrich, cat# SML0889). The fluorescence signal was measured using a CLARIOstar Plus Microplate Spectrophotometer (BMG Labtech) using excitation and emission wavelength of 340 nm and 450 nm, respectively. Data were fitted using Prism GraphPad 9.2.0. For selectivity studies, the inhibition assay for other PTPs were performed under the same conditions as used for PTP1B and PTPN2 except with different DiFMUP concentration corresponding to the Km of the PTP studied.

[4] = Histology of liver, lungs, salivary glands, colon (H&E, Sirius Red); type: in vivo, mouse; settings: 10 mg/kg i.v.
[5] = Figure 10A, serum, individual mice, listed as CMP-182, in pg/mL (unit assumed)

## CC(C)(O)CCOc1ccc2cc(O)c(N3CC(=O)NS3(=O)=O)c(F)c2c1 [Compound 182, 5-(1-Fluoro-3-hydroxy-7-(3-hydroxy-3-methylbutoxy)naphthalen-2-yl)−1,2,5-thiadiazolidin-3-one 1,1-dioxide]
MC38 colon tumors; 10 mg, Figure 4A, listed as CMP-182, in mg (unit assumed)
  Tumour weights MC38, individual mice: 243 and 125 and 480 and 119 and 315
MC38 colon tumors; 10 mg, day 7 post injection, listed as CMP-182, in mm2
  Tumour growth MC38, individual mice: 20.3252 and 20.2131 and 15.2865 and 13.9084 and 14.2859
MC38 colon tumors; 10 mg, day 10 post injection, listed as CMP-182, in mm2
  Tumour growth MC38, individual mice: 21.1854 and 45.7254 and 22.9296 and 28.815 and 21.9308
MC38 colon tumors; 10 mg, day 13 post injection, listed as CMP-182, in mm2
  Tumour growth MC38, individual mice: 21.6489 and 72.4458 and 32.816 and 40.3221 and 29.9376
MC38 colon tumors; 10 mg, day 15 post injection, listed as CMP-182, in mm2
  Tumour growth MC38, individual mice: 31.85 and 42.18 and 22.5 and 27 and 32.94
MC38 colon tumors; 10 mg, day 16 post injection, listed as CMP-182, in mm2
  Tumour growth MC38, individual mice: 29.5394 and 119.382 and 44.1741 and 56.472 and 40.779
MC38 colon tumors; 10 mg, day 18 post injection, listed as CMP-182, in mm2
  Tumour growth MC38, individual mice: 34.2 and 109.2 and 37.7 and 77.4 and 61.62
MC38 colon tumors; 10 mg, day 20 post injection, listed as CMP-182, in mm2
  Tumour growth MC38, individual mice: 38.76 and 109.2 and 38.35 and 60.8 and 61.62
MC38 colon tumors; 10 mg/kg i.v. every 2 days
  growth of subcutaneous MC38 colorectal tumors: repressed the growth
MC38 colon tumors; Figure 4A (MC38), CMP-182 10 mg, n=5, line printed as AT-3, in mm2
  Tumour size, mean over all time points: 42.78
MC38 colon tumors; MC38 tumours, CMP-182 10 mg, Figure 4A
  Tumour weights, median: 243.0, n=5
MC38 colon tumors; MC38 tumours, CMP-182 10 mg, n=5, time point 7, Figure 4A, in mm2
  Tumour size, Predicted (LS) mean 2: 16.8
MC38 colon tumors; MC38 tumours, CMP-182 10 mg, n=5, time point 10, Figure 4A, in mm2
  Tumour size, Predicted (LS) mean 2: 28.12
MC38 colon tumors; MC38 tumours, CMP-182 10 mg, n=5, time point 13, Figure 4A, in mm2
  Tumour size, Predicted (LS) mean 2: 39.43
MC38 colon tumors; MC38 tumours, CMP-182 10 mg, n=5, time point 15, Figure 4A, in mm2
  Tumour size, Predicted (LS) mean 2: 31.29
MC38 colon tumors; MC38 tumours, CMP-182 10 mg, n=5, time point 16, Figure 4A, in mm2
  Tumour size, Predicted (LS) mean 2: 58.07
MC38 colon tumors; MC38 tumours, CMP-182 10 mg, n=5, time point 18, Figure 4A, in mm2
  Tumour size, Predicted (LS) mean 2: 64.02
MC38 colon tumors; MC38 tumours, CMP-182 10 mg, n=5, time point 20, Figure 4A, in mm2
  Tumour size, Predicted (LS) mean 2: 61.75
[1]; 10 mg/kg i.v.
  serum levels of pro-inflammatory cytokines IL-6, IFNγ and TNF: not significantly increased
[1]; Figure 10A, median, n=8
  Serum IFNg 2nd cohort, median: 10.56, n=8
  Serum IL-6 2nd cohort, median: 8.881, n=8
  Serum TNF 2nd cohort, median: 15.88, n=8
[1]; [5]
  IFN g: 8.688 and 8.172 and 5.3329 and 65.9781 and 16.5587 and 24.0426 and 12.4297 and 4.946
  IL-6: 14.2361 and 23.6555 and 10.1071 and 7.655 and 5.591 and 5.72 and 7.01 and 68.8168
  TNF: 7.107 and 11.4953 and 23.094 and 50.0533 and 23.4075 and 14.0031 and 17.7649 and 12.4357
PTPN2 [2]; DiFMUP 10 μM as substrate
  IC50: 0.58 ± 0.02 nM
PTPN2 [2]; TC-PTP, DiFMUP 10 μM, pH 7.0, 25 °C
  IC50: 0.58 ± 0.02 nM
PTPN2 [3]; Lineweaver-Burk
  mode of inhibition: classic competitive inhibitor
PTPN2 [3]; varying inhibitor and DiFMUP, steady state
  Ki: 0.26 ± 0.02 nM
[4]
  liver fibrosis (Picrosirius red): no signs of liver fibrosis
  lymphocytic infiltrates in liver, lungs, salivary glands and colon: did not observe any overt lymphocytic infiltrates
